Results as given in patent publication US7338950B2, “Amide compounds as ion channel ligands and uses thereof” (Renovis, Inc., priority 2003, dated 2008).

Each molecule was assayed on VR1 receptor (293 cells expressing capsaicin-insensitive VR1 receptor variants) (assay: High throughput screening of VR1 antagonists using a calcium imaging assay (Fura2, pH 5.1 stimulus)). Conditions: 1 uM compound; inhibition of calcium ion influx.
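Further: Fura2 ratiometric fluorescence read every 4 s over 3 min, response taken as peak ratio minus baseline before pre-treatment, compound pre-treatment preceding acid challenge.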

SMILES | % Inhibition @ 1 uM
Cc1cccnc1NC(=O)c1ccc(-c2ncccc2Cl)cc1 [Compound 1065] | ++ (compound exhibited 25-50% inhibition of calcium ion influx induced by capsaicin stimulation)
O=C(Nc1ccc(Br)cn1)c1ccc(-c2ncccc2Cl)cc1 [Compound 1066] | ++ (compound exhibited 25-50% inhibition of calcium ion influx induced by capsaicin stimulation)
O=C(Nc1ccc(C(F)(F)F)cn1)c1ccc(-c2ncccc2Cl)cc1 [Compound 1067] | ++ (compound exhibited 25-50% inhibition of calcium ion influx induced by capsaicin stimulation)
CCC(C)(C)NC(=O)c1ccc(-c2ncccc2Cl)cc1 [Compound 1070] | + (compound exhibited 0-25% inhibition of calcium ion influx induced by capsaicin stimulation)
O=C(Nc1ccc2ncccc2c1)c1ccc(-c2ncccc2Cl)cc1 [Compound 1071] | + (compound exhibited 0-25% inhibition of calcium ion influx induced by capsaicin stimulation)
CCC1c2ccccc2-c2cc(NC(=O)c3ccc(-c4ncccc4Cl)cc3)ccc21 (stereo not shown) [Compound 1072] | ++ (compound exhibited 25-50% inhibition of calcium ion influx induced by capsaicin stimulation)
O=C(Nc1ccc([N+](=O)[O-])cc1)c1ccc(-c2ncccc2Cl)cc1 [Compound 1073] | ++++ (compound exhibited 75% or greater inhibition of calcium ion influx induced by capsaicin stimulation)
O=C(Nc1ccc2ccccc2c1)c1ccc(-c2ncccc2Cl)cc1 [Compound 1074] | ++++ (compound exhibited 75% or greater inhibition of calcium ion influx induced by capsaicin stimulation)
O=C(Nc1ccncc1)c1ccc(-c2ncccc2Cl)cc1F [Compound 1079] | + (compound exhibited 0-25% inhibition of calcium ion influx induced by capsaicin stimulation)
O=C(Nc1cccnc1)c1ccc(-c2ncccc2Cl)cc1F [Compound 1080] | + (compound exhibited 0-25% inhibition of calcium ion influx induced by capsaicin stimulation)
CC(C)(NC(=O)c1ccc(-c2ncccc2Cl)cc1F)c1ccccc1 [Compound 1083] | + (compound exhibited 0-25% inhibition of calcium ion influx induced by capsaicin stimulation)
O=C(Nc1ccccc1O)c1ccc(-c2ncccc2Cl)cc1F [Compound 1084] | + (compound exhibited 0-25% inhibition of calcium ion influx induced by capsaicin stimulation)
CN(C)c1cccc(NC(=O)c2ccc(-c3ncccc3Cl)cc2F)c1 [Compound 1086] | + (compound exhibited 0-25% inhibition of calcium ion influx induced by capsaicin stimulation)
O=C(Nc1cccc(Cl)c1)c1ccc(-c2ncccc2Cl)cc1F [Compound 1088] | + (compound exhibited 0-25% inhibition of calcium ion influx induced by capsaicin stimulation)
COc1cccc(NC(=O)c2ccc(-c3ncccc3Cl)cc2F)c1 [Compound 1091] | + (compound exhibited 0-25% inhibition of calcium ion influx induced by capsaicin stimulation)
COc1ccc(NC(=O)c2ccc(-c3ncccc3Cl)cc2F)cc1Cl [Compound 1096] | ++ (compound exhibited 25-50% inhibition of calcium ion influx induced by capsaicin stimulation)
O=C(Nc1cccc(Br)c1)c1ccc(-c2ncccc2Cl)cc1F [Compound 1100] | ++++ (compound exhibited 75% or greater inhibition of calcium ion influx induced by capsaicin stimulation)
N#Cc1cccc(NC(=O)c2ccc(-c3ncccc3Cl)cc2F)c1 [Compound 1101] | ++++ (compound exhibited 75% or greater inhibition of calcium ion influx induced by capsaicin stimulation)
CC(C)(C)c1ccc(NC(=O)c2ccc(-c3ncccc3Cl)cc2F)cc1 [Compound 1103] | + (compound exhibited 0-25% inhibition of calcium ion influx induced by capsaicin stimulation)

SMILES | % Inhibition @ 1 uM
Cc1cccnc1NC(=O)c1ccc(-c2ncccc2Cl)cc1F [Compound 1112] | + (compound exhibited 0-25% inhibition of calcium ion influx induced by capsaicin stimulation)
O=C(Nc1ccc(C(F)(F)F)cn1)c1ccc(-c2ncccc2Cl)cc1F [Compound 1114] | + (compound exhibited 0-25% inhibition of calcium ion influx induced by capsaicin stimulation)
O=C(Nc1ncc(C(F)(F)F)cc1Cl)c1ccc(-c2ncccc2Cl)cc1F [Compound 1115] | + (compound exhibited 0-25% inhibition of calcium ion influx induced by capsaicin stimulation)
O=C(Nc1cccnc1Cl)c1ccc(-c2ncccc2Cl)cc1F [Compound 1118] | + (compound exhibited 0-25% inhibition of calcium ion influx induced by capsaicin stimulation)
COc1ccc(NC(=O)c2ccc(-c3ncccc3Cl)cc2F)cn1 [Compound 1120] | + (compound exhibited 0-25% inhibition of calcium ion influx induced by capsaicin stimulation)
Cc1cc(NC(=O)c2ccc(-c3ncccc3Cl)cc2F)nc(C)n1 [Compound 1123] | +++ (compound exhibited 50-75% inhibition of calcium ion influx induced by capsaicin stimulation)
O=C(Nc1ccc2ncccc2c1)c1ccc(-c2ncccc2Cl)cc1F [Compound 1124] | ++ (compound exhibited 25-50% inhibition of calcium ion influx induced by capsaicin stimulation)
O=C(Nc1ccc2ccccc2c1)c1ccc(-c2ncccc2Cl)cc1F [Compound 1126] | ++ (compound exhibited 25-50% inhibition of calcium ion influx induced by capsaicin stimulation)
CC(C)(C)NC(=O)c1ccc(-c2ncccc2Cl)c(F)c1 [Compound 1127] | + (compound exhibited 0-25% inhibition of calcium ion influx induced by capsaicin stimulation)
O=C(Nc1ccc(F)cc1)c1ccc(-c2ncccc2Cl)c(F)c1 [Compound 1131] | + (compound exhibited 0-25% inhibition of calcium ion influx induced by capsaicin stimulation)
O=C(Nc1cccc(Cl)c1)c1ccc(-c2ncccc2Cl)c(F)c1 [Compound 1133] | + (compound exhibited 0-25% inhibition of calcium ion influx induced by capsaicin stimulation)
CCCc1ccccc1NC(=O)c1ccc(-c2ncccc2Cl)c(F)c1 [Compound 1135] | + (compound exhibited 0-25% inhibition of calcium ion influx induced by capsaicin stimulation)
COc1cccc(NC(=O)c2ccc(-c3ncccc3Cl)c(F)c2)c1 [Compound 1136] | + (compound exhibited 0-25% inhibition of calcium ion influx induced by capsaicin stimulation)
O=C(Nc1cccc(Cl)c1Cl)c1ccc(-c2ncccc2Cl)c(F)c1 [Compound 1139] | ++++ (compound exhibited 75% or greater inhibition of calcium ion influx induced by capsaicin stimulation)
N#Cc1cccc(NC(=O)c2ccc(-c3ncccc3Cl)c(F)c2)c1 [Compound 1141] | ++++ (compound exhibited 75% or greater inhibition of calcium ion influx induced by capsaicin stimulation)
CC(C)(C)c1ccc(NC(=O)c2ccc(-c3ncccc3Cl)c(F)c2)cc1 [Compound 1142] | ++++ (compound exhibited 75% or greater inhibition of calcium ion influx induced by capsaicin stimulation)
CCCCc1ccc(NC(=O)c2ccc(-c3ncccc3Cl)c(F)c2)cc1 [Compound 1144] | ++++ (compound exhibited 75% or greater inhibition of calcium ion influx induced by capsaicin stimulation)
Cc1ccc(NC(=O)c2ccc(-c3ncccc3Cl)c(F)c2)c(C)c1 [Compound 1145] | ++++ (compound exhibited 75% or greater inhibition of calcium ion influx induced by capsaicin stimulation)
